Key:
[1] = Pharmacokinetics of HIV protease inhibitors in rats, alone vs. in combination with ritonavir; type: in vivo; settings: rat, po, 10 mg/kg; for AUC(0-t): read-out: AUC (0-8 h)
Description: Rats (male, Sprague-Dawley derived, 0.3-0.45 kg) were fasted overnight prior to dosing, but were permitted water ad libitum. […] The solutions, administered orally by gavage to a group of rats at a dose volume of 2 ml/kg, provided a 10 mg/kg dose of each compound. […] The plasma was separated from the red cells by centrifugation and frozen (−30° C.) until analysis. […] The peak plasma concentration (Cmax) and time to peak plasma concentration (Tmax) for each rat were obtained directly from the plasma concentration data. The area under the curve was calculated by the trapezoidal method over the time course of the study. The plasma elimination half life was obtained from NONLIN84 or from a log-linear regression of the terminal plasma concentrations as a function of time after dosing. Each combination was evaluated in a group containing at least three rats; the values reported are averages for each group of animals. The data obtained from the combination was compared to data obtained from a separate group of rats which received a single, separate dose of the compound under evaluation.

[2] = Pharmacokinetics of clarithromycin in humans, alone vs. in combination with ritonavir; type: in vivo; settings: oral, healthy human volunteers, 500 mg every 12 hours, single agent, day four of dosing, plasma
Source text: Blood samples were collected on day four of dosing for HPLC determination of plasma concentrations of clarithromycin. Below in Table 2 are shown the results from the pharmacokinetic experiments with clarithromycin in humans.

[3] = male, Sprague-Dawley, plasma, oral gavage 10 mg/kg, compound administered as a single agent, plasma
[4] = male, Sprague-Dawley, plasma, oral gavage 10 mg/kg, compound administered as a single agent, plasma, read-out: Cmax
[5] = male, Sprague-Dawley, plasma, oral gavage 10 mg/kg, compound administered as a single agent, plasma, read-out: Tmax
[6] = male, Sprague-Dawley, plasma, oral gavage 10 mg/kg, dosed in combination with ritonavir 10 mg/kg, plasma
[7] = male, Sprague-Dawley, plasma, oral gavage 10 mg/kg, dosed in combination with ritonavir 10 mg/kg, plasma, read-out: Cmax
[8] = male, Sprague-Dawley, plasma, oral gavage 10 mg/kg, dosed in combination with ritonavir 10 mg/kg, plasma, read-out: Tmax

Question: What does the source list for Cc1c(O)cccc1C(=O)NC(CSc1ccccc1)C(O)CN1CC2CCCCC2CC1C(=O)NC(C)(C)C (centres unmarked) [AG1343]?
Answer: AUC(0-t) [1, 3]: 1140 ng·h/mL; Cmax [1, 4]: 400 ng/mL; Tmax [1, 5]: 45 min; AUC(0-t) [1, 6]: 11900 ng·h/mL; Cmax [1, 7]: 1810 ng/mL; Tmax [1, 8]: 240 min

Question: Which AUC(0-t) [1, 3] does the source give for CC(C)[C@H](NC(=O)N(C)Cc1ccccn1)C(=O)N[C@@H](Cc1ccccc1)[C@H](O)[C@H](O)[C@H](Cc1ccccc1)NC(=O)[C@@H](NC(=O)N(C)Cc1ccccn1)C(C)C [Compound A-77003, (2S,3R,4S,5S)-2,5-Di-(N-((N-methyl)-N-((2-pyridinyl)methyl)amino)carbonylvalinylamino)-3,4-dihydroxy-1,6-diphenyl hexane] here?
Answer: 25 ng·h/mL

Question: What about the Cmax [1, 4] of the same molecule?
Answer: 70 ng/mL

Question: What about the Tmax [1, 5] of the same molecule?
Answer: 15 min

Question: And the AUC(0-t) [1, 6]?
Answer: 1390 ng·h/mL

Question: What about the Cmax [1, 7] of the same molecule?
Answer: 960 ng/mL

Question: What about the Tmax [1, 8] of the same molecule?
Answer: 40.2 min

Question: With CC(C)[C@H](NC(=O)OCc1ccccn1)C(=O)N[C@@H](Cc1ccccc1)[C@@H](O)C[C@H](Cc1ccccc1)NC(=O)OCc1cccnc1 [Compound A-80987] as the molecule, how does the “AUC (0-8 h)” value ([1]; in vivo) read?
Answer: 1450 ng·h/mL

Question: And the Cmax ([1]; in vivo)?
Answer: 2420 ng/mL

Question: What about the Tmax ([1]; in vivo) of the same molecule?
Answer: 15 min

Question: Which “AUC (0-8 h)” value ([1]; male, Sprague-Dawley, in vivo) does the source give for CC(C)(C)NC(=O)[C@@H]1CN(Cc2cccnc2)CCN1C[C@@H](O)C[C@@H](Cc1ccccc1)C(=O)N[C@H]1c2ccccc2C[C@H]1O [MK-639, N-(2(R)-hydroxy-1 (S)-indanyl)-2(R)-phenylmethyl-4(S)-hydroxy-5-(1-(4-(3-pyridylmethyl)-2(S)-N′-(t-butylcarboxamido)-piperazinyl))-pentaneamide] here?
Answer: 810 ng·h/mL

Question: And the Tmax ([1]; male, Sprague-Dawley, in vivo)?
Answer: 30 min

Question: And the Cmax ([1]; male, Sprague-Dawley, in vivo, Cmax)?
Answer: 1030 ng/mL

Question: For CC(C)(C)NC(=O)[C@@H]1C[C@@H]2CCCC[C@@H]2CN1C[C@@H](O)[C@H](Cc1ccccc1)NC(=O)[C@H](CC(N)=O)NC(=O)c1ccc2ccccc2n1 [Saquinavir, N-tert-butyl-decahydro-2-[2(R)-hydroxy-4-phenyl-3(S)-[[N-(2-quinolylcarbonyl)-L-asparaginyl]amino]butyl]-(4aS, 8aS)-isoquinoline-3(S)-carboxamide], which “AUC (0-8 h)” value ([1]; male, Sprague-Dawley, in vivo) is on record?
Answer: 29 ng·h/mL

Question: What about the Cmax ([1]; male, Sprague-Dawley, in vivo) of the same molecule?
Answer: 80 ng/mL

Question: And the Tmax ([1]; male, Sprague-Dawley, in vivo)?
Answer: 10.8 min

Question: What does the source list for CC(C)CN(CC(O)C(Cc1ccccc1)NC(=O)OC1CCOC1)S(=O)(=O)c1ccc(N)cc1 (centres unmarked) [VX-478]?
Answer: AUC(0-t) ([1]; male, Sprague-Dawley, in vivo, oral gavage 10 mg/kg, compound administered as a single agent, plasma): 1690 ng·h/mL; Cmax ([1]; male, Sprague-Dawley, in vivo, oral gavage 10 mg/kg, compound administered as a single agent, plasma, read-out: Cmax): 1610 ng/mL; Tmax ([1]; male, Sprague-Dawley, in vivo, oral gavage 10 mg/kg, compound administered as a single agent, plasma, read-out: Tmax): 25.2 min; AUC(0-t) ([1]; male, Sprague-Dawley, in vivo, oral gavage 10 mg/kg, dosed in combination with ritonavir 10 mg/kg, plasma): 13500 ng·h/mL; Cmax ([1]; male, Sprague-Dawley, in vivo, oral gavage 10 mg/kg, dosed in combination with ritonavir 10 mg/kg, plasma, read-out: Cmax): 2880 ng/mL; Tmax ([1]; male, Sprague-Dawley, in vivo, oral gavage 10 mg/kg, dosed in combination with ritonavir 10 mg/kg, plasma, read-out: Tmax): 90 min

Question: Which results are given for CC[C@H]1OC(=O)[C@H](C)[C@@H](O[C@H]2C[C@@](C)(OC)[C@@H](O)[C@H](C)O2)[C@H](C)[C@@H](O[C@@H]2O[C@H](C)C[C@H](N(C)C)[C@H]2O)[C@](C)(OC)C[C@@H](C)C(=O)[C@H](C)[C@@H](O)[C@]1(C)O [clarithromycin]?
Answer: Cmax [2]: 3930 ng/mL; AUC(0-t) ([2]; read-out: AUC (0-24 h)): 49000 ng·h/mL

Source: patent US6703403B2, “Method for improving pharmacokinetics” (Abbott Laboratories, priority 1995, dated 2004)
